From publication PMC12281424, “A Rac-specific competitive inhibitor of guanine nucleotide binding reduces metastasis in triple-negative breast cancer” (Cell Reports Medicine, 2025)

What was measured:
Cdc7/cyclinB1(h) = Cdc7/cyclinB1(h) (Homo sapiens, UniProt O00311); assay: Kinase Profiler; assay type: biochemical
Method: (§3) The kinase profiler was performed by the company Eurofins (Discovery, Panlab and Cerep).

Adrenergic α1D = Adrenergic α1D (Homo sapiens, UniProt P25100); assay: Safety screen; assay type: binding
Method: Blood cell counts, kinase profiler, safety screen, bacterial cytotoxicity, Ames, micronucleus assays were performed by the company Eurofins (France).

EphB1(h) = EphB1(h) (Homo sapiens, UniProt P54762); assay: Kinase Profiler; assay type: biochemical
Chain of EphB1(h) (P54762 18-984): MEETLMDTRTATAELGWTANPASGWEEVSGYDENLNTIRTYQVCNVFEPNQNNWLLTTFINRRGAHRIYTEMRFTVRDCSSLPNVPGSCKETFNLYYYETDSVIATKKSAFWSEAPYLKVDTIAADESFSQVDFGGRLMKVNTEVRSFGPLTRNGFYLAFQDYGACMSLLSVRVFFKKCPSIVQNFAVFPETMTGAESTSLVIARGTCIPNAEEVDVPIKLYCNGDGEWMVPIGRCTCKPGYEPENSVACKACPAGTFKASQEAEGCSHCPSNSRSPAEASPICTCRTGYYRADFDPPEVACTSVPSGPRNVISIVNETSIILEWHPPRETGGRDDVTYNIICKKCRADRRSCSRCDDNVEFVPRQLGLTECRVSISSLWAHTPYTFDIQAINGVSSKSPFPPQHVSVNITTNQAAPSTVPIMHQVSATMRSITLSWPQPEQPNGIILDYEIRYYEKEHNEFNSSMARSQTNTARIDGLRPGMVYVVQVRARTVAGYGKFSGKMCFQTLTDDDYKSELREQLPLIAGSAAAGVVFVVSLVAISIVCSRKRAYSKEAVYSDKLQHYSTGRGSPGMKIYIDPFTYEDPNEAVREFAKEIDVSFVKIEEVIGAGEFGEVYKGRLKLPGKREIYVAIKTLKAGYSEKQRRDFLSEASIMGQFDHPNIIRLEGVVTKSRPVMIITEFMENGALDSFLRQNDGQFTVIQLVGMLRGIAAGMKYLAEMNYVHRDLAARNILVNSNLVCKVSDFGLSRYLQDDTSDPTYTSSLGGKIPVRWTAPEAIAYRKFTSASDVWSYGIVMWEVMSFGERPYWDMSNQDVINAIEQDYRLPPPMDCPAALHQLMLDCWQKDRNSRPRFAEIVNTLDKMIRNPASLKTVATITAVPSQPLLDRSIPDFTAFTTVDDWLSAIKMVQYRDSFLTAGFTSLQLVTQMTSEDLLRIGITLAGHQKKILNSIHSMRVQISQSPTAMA
Method: (§4) Blood cell counts, kinase profiler, safety screen, bacterial cytotoxicity, Ames, micronucleus assays were performed by the company Eurofins (France). The kinase profiler was performed by the company Eurofins (Discovery, Panlab and Cerep).

RAC1b = target: T1, RAC1b (Homo sapiens, UniProt P63000); assay: RAC-GTP pull-down in transfected NIH-3T3 fibroblasts; assay type: cell-based; details: 10^-5 M
T1 construct: expressed in transfected cells; host or cells: NIH-3T3 fibroblasts
Method: (§1) Figure 4 A41 selectively impairs RAC protein activation (A) Representative surface plasmon resonance (SPR) sensograms of binding of immobilized RHOA or CDC42 with indicated increasing concentrations of A41 (N > 3). (B) Effect of A41 on GEF-stimulated RAC2, RHOG, RHOA, and CDC42 nucleotide exchange. Purified small G proteins were pre-loaded with GDP and then nucleotide exchange was monitored by the increase in fluorescence following mant-GTP binding in the absence and presence of A41 (5 μM) (N = 3). Kobs is expressed as mean ± SEM. ∗p < 0.001 vs. control. (C) Effect of A41 on RAC1 G30S activation. RAC1 G30S activation was monitored by the increase in fluorescence following mant-GTP binding in the absence and presence of A41 (5 μM). […] Data are expressed as mean ± SEM. (D) Immunoblot analysis and associated quantification of RAC-GTP level and total RAC expression in NIH-3T3 fibroblasts expressing RAC wild-type (RAC1 WT) or RAC1 oncomutants (RAC1 P29S and RAC1b) in the absence (Ctrl) and presence of A41 (10 μM). RAC activation was measured as the ratio of RAC-GTP to total RAC and expressed relative to Ctrl condition. […]
(§2) Pull-down assay using GST-PBD fusion proteins were performed on NIH-3T3 lysates to assess RAC1 activity as previously described.[63] The precipitated active RAC was subjected to SDS-PAGE and detected by immunoblot with anti-RAC1 antibody (BD biosciences) (dilution 1/1000).

RAC1 P29S = target: T2, RAC1 P29S (Homo sapiens, UniProt P63000, P29S); assay: as above; assay type: cell-based; details: 10^-5 M
T2 construct: expressed in transfected cells; host or cells: NIH-3T3 fibroblasts
Method: as §1, §2

Flt3(D835Y)(h) = Flt3(D835Y)(h) (Homo sapiens, UniProt P36888, D835Y); assay: Kinase Profiler; assay type: biochemical
Method: as §3

ULK1(h) = ULK1(h) (Homo sapiens, UniProt O75385); assay: Kinase Profiler; assay type: biochemical
Method: as §4

MKK3(h) = MKK3(h) (Homo sapiens, UniProt P46734); assay: Kinase Profiler; assay type: biochemical
Method: as §3

Mer(h) = Mer(h) (Homo sapiens, UniProt Q12866); assay: Kinase Profiler; assay type: biochemical
Method: as §3

Bradykinin B2 = Bradykinin B2 (Homo sapiens, UniProt P30411); assay: Safety screen; assay type: binding
Method: as §4

[1] = target: Serotonin (5-Hydroxytryptamine) 5-HT1B (Homo sapiens, UniProt P28222); assay: Safety screen; assay type: binding
Method: as §4

Opiate κ(OP2, KOP) = Opiate κ(OP2, KOP) (Homo sapiens, UniProt P41145); assay: Safety screen; assay type: binding
Method: as §4

Fyn(h) = Fyn(h) (Homo sapiens, UniProt P06241); assay: Kinase Profiler; assay type: biochemical
Method: as §3

mTOR/FKBP12(h) = mTOR/FKBP12(h) (Homo sapiens, UniProt P42345); assay: Kinase Profiler; assay type: biochemical
Method: as §3

PKCβII(h) = PKCβII(h) (Homo sapiens, UniProt P05771); assay: Kinase Profiler; assay type: biochemical
Method: as §3

Fer(h) = Fer(h) (Homo sapiens, UniProt P16591); assay: Kinase Profiler; assay type: biochemical
Chain of Fer(h) (P16591 whole entry): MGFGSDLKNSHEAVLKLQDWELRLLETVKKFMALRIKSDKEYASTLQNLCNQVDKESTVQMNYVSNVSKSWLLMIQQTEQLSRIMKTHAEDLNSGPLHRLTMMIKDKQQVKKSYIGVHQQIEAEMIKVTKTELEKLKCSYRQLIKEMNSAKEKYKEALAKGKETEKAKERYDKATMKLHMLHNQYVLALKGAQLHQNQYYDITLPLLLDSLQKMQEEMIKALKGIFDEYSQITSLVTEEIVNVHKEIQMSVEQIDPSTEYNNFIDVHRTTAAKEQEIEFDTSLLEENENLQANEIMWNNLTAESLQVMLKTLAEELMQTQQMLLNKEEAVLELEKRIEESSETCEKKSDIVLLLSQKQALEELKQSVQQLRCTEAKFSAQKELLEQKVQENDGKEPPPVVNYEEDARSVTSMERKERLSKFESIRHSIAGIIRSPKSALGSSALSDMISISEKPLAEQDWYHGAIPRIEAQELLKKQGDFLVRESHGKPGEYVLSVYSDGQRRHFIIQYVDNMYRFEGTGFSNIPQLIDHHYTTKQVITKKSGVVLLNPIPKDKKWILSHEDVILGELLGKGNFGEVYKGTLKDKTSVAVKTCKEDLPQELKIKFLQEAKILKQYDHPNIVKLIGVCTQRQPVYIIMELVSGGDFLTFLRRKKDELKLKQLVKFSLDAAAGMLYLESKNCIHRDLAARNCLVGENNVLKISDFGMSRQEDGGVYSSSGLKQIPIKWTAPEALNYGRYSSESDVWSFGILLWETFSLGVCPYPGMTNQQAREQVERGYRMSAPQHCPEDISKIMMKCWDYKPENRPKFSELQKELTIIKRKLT
Method: as §3

IRE1(h) = IRE1(h) (Homo sapiens, UniProt O75460); assay: Kinase Profiler; assay type: biochemical
Chain of IRE1(h) (O75460 19-977): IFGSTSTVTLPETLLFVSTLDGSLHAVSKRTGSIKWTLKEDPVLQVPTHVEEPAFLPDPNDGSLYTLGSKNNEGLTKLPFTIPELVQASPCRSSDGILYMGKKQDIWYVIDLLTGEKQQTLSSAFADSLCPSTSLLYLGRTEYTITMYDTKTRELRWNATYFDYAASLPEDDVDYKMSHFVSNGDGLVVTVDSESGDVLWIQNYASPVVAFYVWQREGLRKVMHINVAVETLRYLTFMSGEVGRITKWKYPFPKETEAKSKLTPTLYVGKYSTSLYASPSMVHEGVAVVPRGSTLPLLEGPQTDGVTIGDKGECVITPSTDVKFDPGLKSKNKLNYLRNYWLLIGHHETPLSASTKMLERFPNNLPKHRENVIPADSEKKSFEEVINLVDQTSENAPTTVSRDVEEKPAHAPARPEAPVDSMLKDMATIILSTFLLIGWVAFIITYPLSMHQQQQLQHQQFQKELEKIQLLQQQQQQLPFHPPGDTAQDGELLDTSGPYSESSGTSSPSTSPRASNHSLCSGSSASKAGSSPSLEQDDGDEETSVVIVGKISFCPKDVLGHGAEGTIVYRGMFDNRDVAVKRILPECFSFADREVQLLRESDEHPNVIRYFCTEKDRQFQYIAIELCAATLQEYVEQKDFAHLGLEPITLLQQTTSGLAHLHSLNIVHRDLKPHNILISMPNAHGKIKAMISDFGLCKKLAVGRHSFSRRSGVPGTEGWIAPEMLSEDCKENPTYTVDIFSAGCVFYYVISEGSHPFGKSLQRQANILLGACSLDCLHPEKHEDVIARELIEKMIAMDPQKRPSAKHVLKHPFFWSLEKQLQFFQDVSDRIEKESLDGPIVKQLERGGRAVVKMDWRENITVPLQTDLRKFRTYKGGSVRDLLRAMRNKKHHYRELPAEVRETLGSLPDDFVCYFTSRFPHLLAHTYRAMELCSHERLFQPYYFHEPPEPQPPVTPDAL
Method: as §4

PKAcβ(h) = PKAcβ(h) (Homo sapiens, UniProt P22694); assay: Kinase Profiler; assay type: biochemical
Method: as §4

DRAK1(h) = DRAK1(h) (Homo sapiens, UniProt Q9UEE5); assay: Kinase Profiler; assay type: biochemical
Method: as §4

STK33(h) = STK33(h) (Homo sapiens, UniProt Q9BYT3); assay: Kinase Profiler; assay type: biochemical
Chain of STK33(h) (Q9BYT3 whole entry): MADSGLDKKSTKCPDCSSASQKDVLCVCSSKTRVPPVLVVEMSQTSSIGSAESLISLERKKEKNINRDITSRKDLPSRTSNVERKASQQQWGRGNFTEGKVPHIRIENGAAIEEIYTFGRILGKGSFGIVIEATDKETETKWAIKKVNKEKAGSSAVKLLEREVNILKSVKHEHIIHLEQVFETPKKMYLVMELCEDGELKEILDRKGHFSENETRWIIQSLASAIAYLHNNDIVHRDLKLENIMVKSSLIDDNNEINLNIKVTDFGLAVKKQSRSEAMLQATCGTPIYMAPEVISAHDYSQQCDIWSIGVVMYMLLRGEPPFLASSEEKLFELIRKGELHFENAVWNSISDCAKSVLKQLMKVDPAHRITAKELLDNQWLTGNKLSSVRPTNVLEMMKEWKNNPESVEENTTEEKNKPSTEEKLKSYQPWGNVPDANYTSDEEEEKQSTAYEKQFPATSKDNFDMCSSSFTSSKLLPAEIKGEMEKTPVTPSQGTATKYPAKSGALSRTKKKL
Method: as §3

CDK6/cyclinD3(h) = CDK6/cyclinD3(h) (Homo sapiens, UniProt Q00534); assay: Kinase Profiler; assay type: biochemical
Chain of CDK6/cyclinD3(h) (Q00534 whole entry): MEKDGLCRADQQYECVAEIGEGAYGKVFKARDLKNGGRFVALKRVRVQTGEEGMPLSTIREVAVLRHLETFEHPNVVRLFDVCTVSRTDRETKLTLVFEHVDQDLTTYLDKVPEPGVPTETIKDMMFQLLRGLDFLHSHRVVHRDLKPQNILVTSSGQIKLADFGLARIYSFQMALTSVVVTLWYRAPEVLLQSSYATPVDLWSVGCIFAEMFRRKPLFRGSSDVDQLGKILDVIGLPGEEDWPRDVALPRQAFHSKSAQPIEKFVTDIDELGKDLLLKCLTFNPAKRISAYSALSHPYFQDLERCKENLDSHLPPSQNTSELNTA
Chain of CDK6/cyclinD3(h) (P30281 whole entry partner): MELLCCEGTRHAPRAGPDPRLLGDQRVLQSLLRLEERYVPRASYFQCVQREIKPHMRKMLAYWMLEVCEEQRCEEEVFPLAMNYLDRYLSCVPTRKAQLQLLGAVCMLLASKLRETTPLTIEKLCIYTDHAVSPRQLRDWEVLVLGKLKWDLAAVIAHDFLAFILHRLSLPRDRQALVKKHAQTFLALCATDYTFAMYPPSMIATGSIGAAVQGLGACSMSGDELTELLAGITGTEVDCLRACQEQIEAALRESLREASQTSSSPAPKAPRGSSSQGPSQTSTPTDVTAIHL
Method: as §4

SGK2(h) = SGK2(h) (Homo sapiens, UniProt Q9HBY8); assay: Kinase Profiler; assay type: biochemical
Chain of SGK2(h) (Q9HBY8 whole entry): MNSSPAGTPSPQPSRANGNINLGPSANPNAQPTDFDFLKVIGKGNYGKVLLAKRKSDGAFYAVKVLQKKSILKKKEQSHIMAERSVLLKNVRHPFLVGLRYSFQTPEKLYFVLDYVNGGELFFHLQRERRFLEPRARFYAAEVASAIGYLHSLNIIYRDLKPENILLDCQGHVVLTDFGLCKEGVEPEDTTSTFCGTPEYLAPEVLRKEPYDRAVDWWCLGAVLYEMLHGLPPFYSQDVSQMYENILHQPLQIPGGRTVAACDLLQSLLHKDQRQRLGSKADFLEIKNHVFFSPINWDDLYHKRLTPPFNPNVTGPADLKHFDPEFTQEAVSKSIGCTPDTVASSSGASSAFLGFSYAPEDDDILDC
Method: as §3

EGFR(L861Q)(h) = EGFR(L861Q)(h) (Homo sapiens, UniProt P00533, L861Q); assay: Kinase Profiler; assay type: biochemical
Method: as §3

PKBβ(h) = PKBβ(h) (Homo sapiens, UniProt P31751); assay: Kinase Profiler; assay type: biochemical
Method: as §3

MARK1(h) = MARK1(h) (Homo sapiens, UniProt Q9P0L2); assay: Kinase Profiler; assay type: biochemical
Method: as §3

ALK2(h) = ALK2(h) (Homo sapiens, UniProt Q04771); assay: Kinase Profiler; assay type: biochemical
Method: as §3

PDGFRα(h) = PDGFRα(h) (Homo sapiens, UniProt P16234); assay: Kinase Profiler; assay type: biochemical
Method: as §3

CT26 cells = assay: Colorectal circulating tumor cells model (pulmonary metastasis); assay type: in vivo, mouse; details: 25 mg/kg i.p. daily day 0 to 14
Method: 7-8 weeks-old BALB/c female mice received an intravenous injection through the caudal vein of the cell suspension (CT26 cells, ATCC® CCL-2638™). The volume needed for implantation was loaded in insulin syringes (2x10^5 cells) in 100 μL of phosphate-buffered saline). The anesthetized mice were placed on a warming blanket and were monitored (breathing) until they wake up.

DAPK2(h) = DAPK2(h) (Homo sapiens, UniProt Q9UIK4); assay: Kinase Profiler; assay type: biochemical
Chain of DAPK2(h) (Q9UIK4 whole entry): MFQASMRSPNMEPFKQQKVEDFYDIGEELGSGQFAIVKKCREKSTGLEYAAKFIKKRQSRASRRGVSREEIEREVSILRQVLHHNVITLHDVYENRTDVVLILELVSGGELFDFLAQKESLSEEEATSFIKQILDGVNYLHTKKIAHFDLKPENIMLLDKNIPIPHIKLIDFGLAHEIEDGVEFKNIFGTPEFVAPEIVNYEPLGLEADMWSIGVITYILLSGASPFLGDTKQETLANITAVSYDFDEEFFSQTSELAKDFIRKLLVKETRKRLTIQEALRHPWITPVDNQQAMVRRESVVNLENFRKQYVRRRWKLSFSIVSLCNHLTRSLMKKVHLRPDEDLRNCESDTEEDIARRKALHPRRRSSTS
Method: as §4

Tie2(Y897S)(h) = Tie2(Y897S)(h) (Homo sapiens, UniProt Q02763, Y897S); assay: Kinase Profiler; assay type: biochemical
Method: as §3

TAK1(h) = TAK1(h) (Homo sapiens, UniProt O43318); assay: Kinase Profiler; assay type: biochemical
Chain of TAK1(h) (O43318 1-303 limits assumed): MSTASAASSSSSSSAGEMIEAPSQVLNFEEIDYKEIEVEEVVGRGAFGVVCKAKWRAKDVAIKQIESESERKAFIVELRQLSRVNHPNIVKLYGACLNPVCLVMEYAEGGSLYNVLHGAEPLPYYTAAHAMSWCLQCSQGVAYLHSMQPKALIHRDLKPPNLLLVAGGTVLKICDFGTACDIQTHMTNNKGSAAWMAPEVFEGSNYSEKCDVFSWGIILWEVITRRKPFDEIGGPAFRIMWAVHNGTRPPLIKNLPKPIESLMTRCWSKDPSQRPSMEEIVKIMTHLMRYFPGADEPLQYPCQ
Method: as §4

Q: For COc1ccc(OC)c(NS(=O)(=O)c2ccc(NC(=O)CCSc3ccc(C)cc3)cc2)c1 [Compound A41], which “Activity(%)” value (Cdc7/cyclinB1(h)) is on record?
A: 92%

Q: And the “% inh.” value (Adrenergic α1D)?
A: 21%

Q: What about the “Activity(%)” value (EphB1(h)) of the same compound?
A: 111%

Q: What about the “activity of RAC1b (RAC-GTP)” value (RAC1b) of the same compound?
A: reduced the activity

Q: What about the “activity of RAC P29S (RAC-GTP)” value (RAC1 P29S) of the same compound?
A: reduced the activity

Q: And the “Activity(%)” value (Flt3(D835Y)(h))?
A: 101%

Q: And the “Activity(%)” value (ULK1(h))?
A: 106%

Q: And the “Activity(%)” value (MKK3(h))?
A: 117%

Q: What about the “Activity(%)” value (Mer(h)) of the same compound?
A: 90%

Q: What about the “% inh.” value (Bradykinin B2) of the same compound?
A: 1%

Q: And the “% inh.” value [1]?
A: 15%

Q: What about the “% inh.” value (Opiate κ(OP2, KOP)) of the same compound?
A: 10%

Q: What about the “Activity(%)” value (Fyn(h)) of the same compound?
A: 102%

Q: What about the “Activity(%)” value (mTOR/FKBP12(h)) of the same compound?
A: 104%

Q: What about the “Activity(%)” value (PKCβII(h)) of the same compound?
A: 97%

Q: And the “Activity(%)” value (Fer(h))?
A: 114%

Q: And the “Activity(%)” value (IRE1(h))?
A: 101%

Q: What about the “Activity(%)” value (PKAcβ(h)) of the same compound?
A: 116%

Q: What about the “Activity(%)” value (DRAK1(h)) of the same compound?
A: 101%

Q: And the “Activity(%)” value (STK33(h))?
A: 98%

Q: What about the “Activity(%)” value (CDK6/cyclinD3(h)) of the same compound?
A: 111%

Q: What about the “Activity(%)” value (SGK2(h)) of the same compound?
A: 117%

Q: And the “Activity(%)” value (EGFR(L861Q)(h))?
A: 107%

Q: And the “Activity(%)” value (PKBβ(h))?
A: 116%

Q: What about the “Activity(%)” value (MARK1(h)) of the same compound?
A: 110%

Q: And the “Activity(%)” value (ALK2(h))?
A: 100%

Q: And the “Activity(%)” value (PDGFRα(h))?
A: 92%

Q: And the animal survival (CT26 cells)?
A: improvement in animal survival

Q: What about the “development of pulmonary metastases” value (CT26 cells) of the same compound?
A: significantly reduced the development of pulmonary metastases

Q: And the “Activity(%)” value (DAPK2(h))?
A: 99%

Q: What about the “Activity(%)” value (Tie2(Y897S)(h)) of the same compound?
A: 109%

Q: And the “Activity(%)” value (TAK1(h))?
A: 107%
